In BindingDB's records for doi:10.1111/cbdd.12588 (Tehran University of Medical Sciences, 2015) one finds IC50 data, which are given here for 16 compounds.

Assay [1] concerns the target Acetylcholinesterase (Electrophorus electricus, UniProt O42275). As to the kind of experiment: Cholinesterase Inhibition Assay. The conditions noted are these: pH 8. Here is the method: (§1) The target compounds were dissolved in a mixture of 1 mL DMSO and 9 mL methanol and diluted in 0.1 M KH2PO4/K2HPO4 buffer (pH 8.0) to obtain final concentrations.For each compound, five different concentrations were tested to obtain the range of 20-80% enzyme inhibition. The assay medium was composed of 3 mL of phosphatebuffer (0.1 M, pH 8.0), 100 µL of DTNB (0.01 M), 100 µL of enzyme solution (AChE or BuChE, 2.5 unit/mL), and 50 µL of test compound.

Assay [2] has as its target Carboxylic ester hydrolase (Equus caballus, UniProt Q9N1N9). The experiment in a line: Cholinesterase Inhibition Assay. The conditions noted are these: pH 8. The procedure:
as §1

Acetylcholinesterase, sequence (O42275 whole entry): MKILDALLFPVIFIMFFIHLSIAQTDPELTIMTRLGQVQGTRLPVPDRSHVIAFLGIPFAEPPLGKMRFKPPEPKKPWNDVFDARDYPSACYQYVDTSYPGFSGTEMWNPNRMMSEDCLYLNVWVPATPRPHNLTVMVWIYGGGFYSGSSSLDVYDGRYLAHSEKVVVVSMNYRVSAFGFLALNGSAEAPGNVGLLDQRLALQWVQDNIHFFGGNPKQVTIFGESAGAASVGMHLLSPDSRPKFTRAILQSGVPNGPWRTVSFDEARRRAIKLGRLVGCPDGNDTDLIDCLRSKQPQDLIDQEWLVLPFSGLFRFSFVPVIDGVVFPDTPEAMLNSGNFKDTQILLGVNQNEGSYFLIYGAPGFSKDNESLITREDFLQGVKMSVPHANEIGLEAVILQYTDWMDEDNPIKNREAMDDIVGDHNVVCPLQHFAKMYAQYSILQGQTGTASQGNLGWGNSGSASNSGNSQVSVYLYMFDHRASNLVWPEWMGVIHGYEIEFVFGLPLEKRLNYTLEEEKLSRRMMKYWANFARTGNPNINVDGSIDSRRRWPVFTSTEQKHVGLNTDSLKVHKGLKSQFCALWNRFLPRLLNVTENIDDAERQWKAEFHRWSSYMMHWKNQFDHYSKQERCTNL
Carboxylic ester hydrolase, sequence (Q9N1N9 whole entry): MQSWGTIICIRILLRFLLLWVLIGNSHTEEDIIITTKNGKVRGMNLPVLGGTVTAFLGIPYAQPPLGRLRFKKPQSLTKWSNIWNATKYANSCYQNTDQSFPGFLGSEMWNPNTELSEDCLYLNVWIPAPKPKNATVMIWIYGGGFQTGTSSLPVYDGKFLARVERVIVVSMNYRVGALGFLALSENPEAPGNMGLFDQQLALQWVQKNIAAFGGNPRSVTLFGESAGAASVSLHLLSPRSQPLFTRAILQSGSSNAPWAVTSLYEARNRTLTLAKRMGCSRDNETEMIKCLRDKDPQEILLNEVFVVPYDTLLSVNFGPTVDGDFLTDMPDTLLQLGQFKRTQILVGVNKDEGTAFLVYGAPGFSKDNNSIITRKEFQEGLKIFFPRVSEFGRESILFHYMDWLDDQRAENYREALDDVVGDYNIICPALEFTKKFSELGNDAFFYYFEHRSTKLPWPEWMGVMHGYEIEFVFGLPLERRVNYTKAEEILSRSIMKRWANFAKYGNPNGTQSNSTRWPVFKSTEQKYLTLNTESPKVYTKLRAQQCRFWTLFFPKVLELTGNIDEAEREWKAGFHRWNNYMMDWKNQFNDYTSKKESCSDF

`COc1ccc(Cn2cc(COC(=O)COc3cc(=O)oc4ccccc34)nn2)cc1` [(1-(4-Methoxybenzyl)-1H-1,2,3-triazol-4-yl)methyl 2-(2-oxo-2H-chromen-4-yloxy)acetate (8e)]: the values for the IC50 in assay [1] and in assay [2] were 104 µM and above 50 µM, respectively.

`O=C(COc1cc(=O)oc2ccccc12)OCc1cn(Cc2cccc(Br)c2)nn1` [(1-(3-Bromobenzyl)-1H-1,2,3-triazol-4-yl)methyl 2-(2-oxo-2H-chromen-4-yloxy)acetate (8b)]: the figures for the IC50 in assay [1] and in assay [2] were 1.79 µM and above 50 µM, respectively.

For `O=C(COc1cc(=O)oc2ccccc12)OCc1cn(Cc2ccccc2Cl)nn1` [(1-(2-Chlorobenzyl)-1H-1,2,3-triazol-4-yl)methyl 2-(2-oxo-2H-chromen-4-yloxy)acetate (8k)], the IC50 was 0.18 µM in assay [1] and above 50 µM in assay [2].

With `Cc1ccccc1Cn1cc(COC(=O)COc2cc(=O)oc3ccccc23)nn1` [(1-(2-Methylbenzyl)-1H-1,2,3-triazol-4-yl)methyl 2-(2-oxo-2H-chromen-4-yloxy)acetate (8f)], the IC50 in assay [1] is 1.79 µM; in assay [2], above 50 µM.

For `O=C(COc1cc(=O)oc2ccccc12)OCc1cn(Cc2ccccc2Br)nn1` [(1-(2-Bromobenzyl)-1H-1,2,3-triazol-4-yl)methyl 2-(2-oxo-2H-chromen-4-yloxy)acetate (8a)], the IC50 in assay [1] stood at 2.14 µM; in assay [2], 43 µM.

On to `O=C(COc1cc(=O)oc2ccccc12)OCc1cn(Cc2ccc(F)cc2)nn1` [(1-(4-Fluorobenzyl)-1H-1,2,3-triazol-4-yl)methyl 2-(2-oxo-2H-chromen-4-yloxy)acetate (8j)], for which the IC50 in assay [1] was 2.54 µM; in assay [2], above 50 µM.

Turning to `O=C(COc1cc(=O)oc2ccccc12)OCc1cn(Cc2ccccc2)nn1` [(1-Benzyl-1H-1,2,3-triazol-4-yl)methyl 2-((2-oxo-2H-chromen-4-yl)oxy)acetate (8p)], the IC50 is 15.8 µM in assay [1] and above 50 µM in assay [2].

For the compound `O=C(COc1cc(=O)oc2ccccc12)OCc1cn(Cc2cccc(F)c2)nn1` [(1-(3-Fluorobenzyl)-1H-1,2,3-triazol-4-yl)methyl 2-(2-oxo-2H-chromen-4-yloxy)acetate (8i)], the IC50 is 1.64 µM in assay [1] and above 50 µM in assay [2].

Regarding `O=C(COc1cc(=O)oc2ccccc12)OCc1cn(Cc2ccccc2F)nn1` [(1-(2-Fluorobenzyl)-1H-1,2,3-triazol-4-yl)methyl 2-(2-oxo-2H-chromen-4-yloxy)acetate (8h)], the IC50 was 5.7 µM in assay [1] and above 50 µM in assay [2].

For the compound `O=C(COc1cc(=O)oc2ccccc12)OCc1cn(Cc2ccccc2[N+](=O)[O-])nn1` [(1-(2-Nitrobenzyl)-1H-1,2,3-triazol-4-yl)methyl 2-(2-oxo-2H-chromen-4-yloxy)acetate (8n)], the values for the IC50 in assay [1] and in assay [2] were 0.53 µM and above 50 µM, respectively.

For `O=C(COc1cc(=O)oc2ccccc12)OCc1cn(Cc2ccc(Br)cc2)nn1` [(1-(4-Bromobenzyl)-1H-1,2,3-triazol-4-yl)methyl 2-(2-oxo-2H-chromen-4-yloxy)acetate (8c)], the figures for the IC50 in assay [1] and in assay [2] were 87.9 µM and above 50 µM, respectively.

For `O=C(COc1cc(=O)oc2ccccc12)OCc1cn(Cc2ccc(Cl)cc2)nn1` [(1-(4-Chlorobenzyl)-1H-1,2,3-triazol-4-yl)methyl 2-(2-oxo-2H-chromen-4-yloxy)acetate (8m)], the IC50 in assay [1] was 13 µM; in assay [2] it was above 50 µM.

Turning to `Cc1ccc(Cn2cc(COC(=O)COc3cc(=O)oc4ccccc34)nn2)cc1` [(1-(4-Methylbenzyl)-1H-1,2,3-triazol-4-yl)methyl 2-(2-oxo-2H-chromen-4-yloxy)acetate (8g)], the IC50 in assay [1] was 90 µM; in assay [2] it was above 50 µM.

Regarding `COc1cccc(Cn2cc(COC(=O)COc3cc(=O)oc4ccccc34)nn2)c1` [(1-(3-Methoxybenzyl)-1H-1,2,3-triazol-4-yl)methyl 2-(2-oxo-2H-chromen-4-yloxy)acetate (8d)], the figures for the IC50 in assay [1] and in assay [2] were 7 µM and above 50 µM, respectively.

Regarding `O=C(COc1cc(=O)oc2ccccc12)OCc1cn(Cc2ccc([N+](=O)[O-])cc2)nn1` [(1-(4-Nitrobenzyl)-1H-1,2,3-triazol-4-yl)methyl 2-(2-oxo-2H-chromen-4-yloxy)acetate (8o)], the IC50 in assay [1] is 137 µM; in assay [2] it was above 50 µM.

Turning to `O=C(COc1cc(=O)oc2ccccc12)OCc1cn(Cc2cccc(Cl)c2)nn1` [(1-(3-Chlorobenzyl)-1H-1,2,3-triazol-4-yl)methyl 2-((2-oxo-2H-chromen-4-yl)oxy)acetate (8l)], the 50% inhibitory concentration (IC50) in assay [1] is 0.34 µM; in assay [2], above 50 µM.

For orientation: IC50 means the concentration at which inhibition is half-maximal. A low value points to greater potency in that assay.
